The numbers were not newly measured in patent US7976880B2, “Pregnane glycoside compositions and Caralluma extract products and uses thereof” (priority 2003, dated 2011), which cites them from elsewhere.

Molecules are shown by their SMILES. Where two headings read alike, the source gives them in different places.

The subject of the data set is appetite. The settings on record: 3 mg per kg body weight.

On to `O=C(O)CC(O)(C(=O)O)C(O)C(=O)O` (single isomer, unassigned; (-)) [HCA, (−)-hydroxycitrate], for which the Reduction in appetite entry was “about 43%” (at 6.5 hours) and “about 29%” (at 24 hours).
